# Source: publication PMC8286840, “Identifying SARS-CoV-2 antiviral compounds by screening for small molecule inhibitors of Nsp3 papain-like protease” (Biochemical Journal, 2021)
# Where a name gives a salt, the structure may show the parent alone. Read-outs that look alike come from different tables or passages of the source. Where a SMILES comes first, the peptide text is derived from it. Bridges are numbered along the chain shown (N, C = ends).
# Tests used:
# [1] = biological target: T1, SARS-CoV-2 PLpro (nsp3 1564–1878) (Severe acute respiratory syndrome coronavirus 2, UniProt P0DTD1); assay: biochemical; parameters: FRET-quenched peptide (Pro3) cleavage by PLpro, 10 min pre-incubation, slope over 20 min, normalised to no-compound control; settings: low concentration screen, read-out: % of control remaining
# [2] = biological target: T1, SARS-CoV-2 PLpro (nsp3 1564–1878); assay: biochemical; parameters: FRET-quenched peptide (Pro3) cleavage by PLpro, 10 min pre-incubation, slope over 20 min, normalised to no-compound control; settings: high concentration screen, read-out: % of control remaining
structure (smiles),measurement,setting,value
CCOC(=O)[C@@H](N)Cc1ccc(-c2cc(O[C@H](c3ccc(Cl)cc3-n3ccc(C)n3)C(F)(F)F)nc(N)n2)cc1 [Telotristat Etiprate (LX 1606 Hippurate)],remaining activity at 1.25 µM,[1]; Well no.=8288,92.6%
same,remaining activity at 3.75 µM,[2]; Well no.=8288,92.1%
CCOC(=O)[C@H](CCc1ccccc1)N[C@H]1CS[C@H](c2cccs2)CN(CC(=O)O)C1=O [Temocapril (hydrochloride)],remaining activity at 1.25 µM,[1]; Well no.=8218,103%
same,remaining activity at 3.75 µM,[2]; Well no.=8218,99.9%
CCOC(=O)[C@H](CCc1ccccc1)N[C@H]1CS[C@H](c2cccs2)CN(CC(=O)O)C1=O [Temocapril HCl],remaining activity at 1.25 µM,[1]; Well no.=4764,106%
same,remaining activity at 3.75 µM,[2]; Well no.=4764,109%
Cn1nnc2c(C(N)=O)ncn2c1=O [Temozolomide],remaining activity at 1.25 µM,[1]; Well no.=1952,95%
same,remaining activity at 3.75 µM,[2]; Well no.=1952,99.1%
COc1cnc(-n2cnc(C)n2)c2[nH]cc(C(=O)C(=O)N3CCN(C(=O)c4ccccc4)CC3)c12 [Temsavir],remaining activity at 1.25 µM,[1]; Well no.=7886,97.2%
same,remaining activity at 3.75 µM,[2]; Well no.=7886,98%
CO[C@H]1C[C@@H]2CC[C@@H](C)[C@@](O)(O2)C(=O)C(=O)N2CCCC[C@H]2C(=O)O[C@H]([C@H](C)C[C@@H]2CC[C@@H](OC(=O)C(C)(CO)CO)[C@H](OC)C2)CC(=O)[C@H](C)/C=C(\C)[C@@H](O)[C@@H](OC)C(=O)[C@H](C)C[C@H](C)/C=C/C=C/C=C/1C [Temsirolimus],remaining activity at 1.25 µM,[1]; Well no.=8412,95.2%
same,remaining activity at 3.75 µM,[2]; Well no.=8412,91.8%
COc1ccc2[nH]c([S+]([O-])Cc3ncc(C)c(OC)c3C)nc2n1 (centres unmarked) [Tenatoprazole],remaining activity at 1.25 µM,[1]; Well no.=1950,98.5%
same,remaining activity at 3.75 µM,[2]; Well no.=1950,95.8%
Cc1cc(N2CCN([C@@H]3CN[C@H](C(=O)N4CCSC4)C3)CC2)n(-c2ccccc2)n1 [Teneligliptin hydrobromide],remaining activity at 1.25 µM,[1]; Well no.=8110,107%
same,remaining activity at 3.75 µM,[2]; Well no.=8110,106%
CC(C)OC(=O)OCOP(=O)(CO[C@H](C)Cn1cnc2c(N)ncnc21)OCOC(=O)OC(C)C [Tenofovir Disoproxil Fumarate],remaining activity at 1.25 µM,[1]; Well no.=4811,97.8%
same,remaining activity at 3.75 µM,[2]; Well no.=4811,99.5%
CC(=O)Nc1ccc(NC(=S)NC(=O)c2ccc(C(C)(C)C)cc2)cc1 [Tenovin-1],remaining activity at 1.25 µM,[1]; Well no.=4784,95.1%
same,remaining activity at 1.25 µM,[1]; Well no.=7160,98.9%
same,remaining activity at 3.75 µM,[2]; Well no.=4784,96.5%
CC(C)(C)c1ccc(C(=O)NC(=S)Nc2ccc(N)cc2)cc1 [Tenovin-3],remaining activity at 1.25 µM,[1]; Well no.=7072,102%
same,remaining activity at 3.75 µM,[2]; Well no.=7072,97.4%
CN(C)CCCCC(=O)Nc1ccc(NC(=S)NC(=O)c2ccc(C(C)(C)C)cc2)cc1 [Tenovin-6],remaining activity at 1.25 µM,[1]; Well no.=6724,93.8%
same,remaining activity at 3.75 µM,[2]; Well no.=6724,92%
CN1C(C(=O)Nc2ccccn2)=C(O)c2sccc2S1(=O)=O [Tenoxicam],remaining activity at 1.25 µM,[1]; Well no.=2299,98.3%
same,remaining activity at 3.75 µM,[2]; Well no.=2299,101%
COc1cc2nc(N3CCN(C(=O)C4CCCO4)CC3)nc(N)c2cc1OC (centres unmarked) [Terazosin (hydrochloride dihydrate)],remaining activity at 1.25 µM,[1]; Well no.=7519,98.6%
same,remaining activity at 3.75 µM,[2]; Well no.=7519,84.5%
COc1cc2nc(N3CCN(C(=O)C4CCCO4)CC3)nc(N)c2cc1OC (centres unmarked) [Terazosin hydrochloride],remaining activity at 1.25 µM,[1]; Well no.=1241,98.7%
same,remaining activity at 3.75 µM,[2]; Well no.=1241,92.5%
COc1cc2nc(N3CCN(C(=O)C4CCCO4)CC3)nc(N)c2cc1OC (centres unmarked) [Terazosin],remaining activity at 1.25 µM,[1]; Well no.=2301,90.8%
same,remaining activity at 3.75 µM,[2]; Well no.=2301,89.8%
CN(C/C=C/C#CC(C)(C)C)Cc1cccc2ccccc12 [Terbinafine],remaining activity at 1.25 µM,[1]; Well no.=1580,95%
same,remaining activity at 3.75 µM,[2]; Well no.=1580,97.8%
CC(C)(C)NCC(O)c1cc(O)cc(O)c1 (centres unmarked) [Terbutaline (sulfate)],remaining activity at 1.25 µM,[1]; Well no.=6709,106%
same,remaining activity at 3.75 µM,[2]; Well no.=6709,106%
CC(C)(C)NCC(O)c1cc(O)cc(O)c1 (centres unmarked) [Terbutaline hemisulfate],remaining activity at 1.25 µM,[1]; Well no.=1189,98.5%
same,remaining activity at 3.75 µM,[2]; Well no.=1189,100%
O=C(O)c1ccc(C(=O)O)cc1 [Terephthalic acid],remaining activity at 1.25 µM,[1]; Well no.=7501,106%
same,remaining activity at 3.75 µM,[2]; Well no.=7501,103%
CC(C)(C)c1ccc(C(O)CCCN2CCC(C(O)(c3ccccc3)c3ccccc3)CC2)cc1 (centres unmarked) [Terfenadine],remaining activity at 1.25 µM,[1]; Well no.=1232,100%
same,remaining activity at 1.25 µM,[1]; Well no.=1742,97.7%
same,remaining activity at 1.25 µM,[1]; Well no.=6598,103%
same,remaining activity at 3.75 µM,[2]; Well no.=1232,102%
same,remaining activity at 3.75 µM,[2]; Well no.=1742,98.6%
same,remaining activity at 3.75 µM,[2]; Well no.=6598,104%
NCCCC[C@H](NC(=O)[C@@H]1CCCN1C(=O)[C@@H]1CSSC[C@H](NC(=O)CNC(=O)CNC(=O)CN)C(=O)N[C@@H](Cc2ccc(O)cc2)C(=O)N[C@@H](Cc2ccccc2)C(=O)N[C@@H](CCC(N)=O)C(=O)N[C@@H](CC(N)=O)C(=O)N1)C(=O)NCC(N)=O [Terlipressin] (H-GGGCYFQNCPKG-NH2; disulfide 4-9),remaining activity at 1.25 µM,[1]; Well no.=8103,106%
same,remaining activity at 3.75 µM,[2]; Well no.=8103,104%
CC(CC(c1ccccc1)c1ccccc1)NC(C)(C)C (centres unmarked) [Terodiline hydrochloride],remaining activity at 1.25 µM,[1]; Well no.=5438,94.4%
same,remaining activity at 3.75 µM,[2]; Well no.=5438,99.3%
Cc1ccc2c(c1CCC(=O)O)CC[C@@H](NS(=O)(=O)c1ccc(Cl)cc1)C2 [Terutroban],remaining activity at 1.25 µM,[1]; Well no.=7149,93.3%
same,remaining activity at 3.75 µM,[2]; Well no.=7149,94.2%
COc1cc2c(cc1OC)[C@H]1CC(=O)[C@H](CC(C)C)CN1CC2 [Tetrabenazine],remaining activity at 1.25 µM,[1]; Well no.=7492,94.6%
same,remaining activity at 3.75 µM,[2]; Well no.=7492,94.7%
CCCCNc1ccc(C(=O)OCCN(C)C)cc1 [Tetracaine hydrochloride],remaining activity at 1.25 µM,[1]; Well no.=1228,97.1%
same,remaining activity at 3.75 µM,[2]; Well no.=1228,97.5%
CCCCCCCCCCCCCCCCCCCCCCCC(=O)O [Tetracosanoic acid],remaining activity at 1.25 µM,[1]; Well no.=4502,92.1%
same,remaining activity at 3.75 µM,[2]; Well no.=4502,94.2%
CN(C)[C@@H]1C(O)=C(C(N)=O)C(=O)[C@@]2(O)C(O)=C3C(=O)c4c(O)cccc4[C@@](C)(O)[C@H]3C[C@@H]12 [Tetracycline],remaining activity at 1.25 µM,[1]; Well no.=1948,95.4%
same,remaining activity at 3.75 µM,[2]; Well no.=1948,93.7%
CCCCCCCCCCCCCC(=O)O [Tetradecanoic acid],remaining activity at 1.25 µM,[1]; Well no.=4266,102%
same,remaining activity at 3.75 µM,[2]; Well no.=4266,95.8%
CC[N+](CC)(CC)CC [Tetraethylammonium chloride],remaining activity at 1.25 µM,[1]; Well no.=1475,93.2%
same,remaining activity at 3.75 µM,[2]; Well no.=1475,89%
COc1ccc2c(c1OC)CN1CCc3cc4c(cc3C1C2)OCO4 (centres unmarked) [Tetrahydroberberine],remaining activity at 1.25 µM,[1]; Well no.=6656,97.9%
same,remaining activity at 3.75 µM,[2]; Well no.=6656,99.7%
C[C@H](O)[C@H](O)[C@H]1CNc2nc(N)[nH]c(=O)c2N1 [Tetrahydrobiopterin],remaining activity at 1.25 µM,[1]; Well no.=6159,108%
same,remaining activity at 3.75 µM,[2]; Well no.=6159,109%
COc1cc(CCC(=O)CC(=O)CCc2ccc(O)c(OC)c2)ccc1O [Tetrahydrocurcumin],remaining activity at 1.25 µM,[1]; Well no.=6199,104%
same,remaining activity at 3.75 µM,[2]; Well no.=6199,107%
